Legend:
Assay type in all cases: cell-based
Conditions in all cases: after 10, 20, 40 and 60 minutes at all dilutions 1:100, 1:200, 1:400, 1:800
[1] = tested on: Staphylococcus aureus; test: Antimicrobial screening by agar dilution, Staphylococcus aureus
Experimental: (§1) The antimicrobial properties of the 4,5-bis(4-bromophenyl)-1-hexyl-2-(4-hydroxy-3-dimethoxyphenyl)-1H-imidazole was studied by the method of agar dilution. Test solutions of each compound was prepared in concentration of 1% using dimethylformamide as a solvent then they were diluted in physiological solution to obtain the final experimental dilutions 1: 100, 1:200, 1:400, 1:800. The effect of these substances were compared with furacillin in a controlled study. The testing microbes used were gram positive bacteria Staphylococcus aureus, gram negative bacteria Pseudomonas aeruginosa and Escherichia coli and Candida albicans fungi were taken. The experiments used for this survey were meat-pentonlu agar (EPA) for cultivation of bacteria and Saburo environment for fungi. Each experiment used 1 ml of test solution on each plate 500 min. Add 2 drops of emulsified with microbes feel. All experimental samples were taken from the agar after 10, 20, 40, 60 minutes in the environment on the basis of Patrk planted. Bacteria were cultivated at a temperature of 37° C. for 1 day and the mushroom was kept in a thermostat for […] at a temperature of 28° C. Then results were checked.

[2] = tested on: Escherichia coli; test: Antimicrobial screening by agar dilution, Escherichia coli
Experimental: as §1

[3] = tested on: Pseudomonas aeruginosa; test: Antimicrobial screening by agar dilution, Pseudomonas aeruginosa
Experimental: as §1

[4] = tested on: Candida albicans; test: Antimicrobial (antifungal) screening by agar dilution, Candida albicans
Experimental: as §1

Measured: inhibition activity (summary in words)

CCCCCCn1c(-c2ccc(O)c(OC)c2)nc(-c2ccc(Br)cc2)c1-c1ccc(Br)cc1 [4,5-bis(4-bromophenyl)-1-hexyl-2-(4-hydroxy-3-dimethoxyphenyl)-1H-imidazole]
highest inhibition activity: all assays above

Source: patent US11952348B1, “4,5-bis(4-bromophenyl)-1-hexyl-2-(4-hydroxy-3-dimethoxyphenyl)-1H-imidazole as an antimicrobial compound” (KING FAISAL UNIVERSITY, priority 2023, dated 2024)
